# Measurements as given in US7465541B1, “Vitamin D3-responsive sequences located 5′-upstream of p27/kip 1 gene and methods of screening for pharmaceutical agents using the sequences” (Toshiyuki Sakai, priority 2000, dated 2008).
# Assays:
# [1] = system: p27^Kip1 mRNA; assay: p27^Kip1 mRNA induction in U937 cells (Northern analysis); assay type: cell-based, human; conditions: peaked between 24 h and 48 h, compared with 0 h
# Method: Human cervical cancer cell line, C33A, human osteosarcoma cell lines, U2OS and MG63 were maintained in Dulbecco modified Eagle media containing 10% (v/v) fetal bovine serum (FBS) and cultivated in an atmosphere of 5% CO2 at 37° C. Human myelomonocytic cell line U937 (a generous gift from Dr. Y. Honma of the Saitama Cancer Research Institute, Saitama, Japan) was cultivated in Rosweli Park Memorial Institute (RPMI) 1640 media supplemented with 10% (v/v) fatal bovine serum in an atmosphere of 5% CO2.
# For this purpose, a series of 5′ deletion constructs of the p27^Kip1 promoter were examined.
# [2] = system: −555/−512 region of the human p27^Kip1 promoter fused to SV40 early promoter; assay: Luciferase reporter assay with −555/−512 sequence upstream of SV40 early promoter in U937 cells; assay type: cell-based
# Excerpt: Furthermore, the present inventors generated constructs containing four tandem copies of the specific sequence of the p27^Kip1 promoter fused to a minimal promoter. A double-stranded 52-bp DNA fragment containing a 44-bp sequence corresponding to the −555/−512 region of the human p27^Kip1 promoter and linker sites (indicated by lower case letters below) at both ends was generated from two oligonucleotides. The top strand (5′-aggg[…]-3′) (SEQ ID NO: 5) and the bottom strand (5′-ccct[…]-3′) (SEQ ID NO: 6) were annealed, ligated, blunted and subcloned into the SmaI site upstream of the SV40 early promoter in the PicaGene Promoter Vector 2 (Nippon Gene, Tokyo, Japan) in a forward or reverse orientation to generate PGPV2[−555/−512wild]4 and PGPV2[R−555/−512wiId]4, respectively. Similarly, three types of double-stranded mutated oligonucleotides of the 44-bp sequence were also inserted into the same vector to generate the mutated constructs, PGPV2[−555/−512mSp1-1]4, PGPV2[−555/−512 mSp1-2]4, PGPV2[−555/−512mCTf]4 (see Table 1). Oligonucleotides used in Example 3-6 are shown as follows (SEQ ID NOS: 5, 6, and 18-31).
# The present inventors concluded that the region between −555 and −512 relative to the translation start site (−118 and −75 relative to the transcription start site) was sufficient for vitamin D3-induced transcription of the p27^Kip1 gene. Furthermore, both the Sp1-1 site and the CCAAT box in this region were vitamin D3-responsive elements and were required for vitamin D3-induced transcription of the p27^Kip1 gene.
# [3] = system: NF-I; assay: Gel shift assay, NF-I binding to NF-Iwild probe, nuclear extracts of treated U937 cells; assay type: cell-based, human; conditions: U937 cells treated 36 h, versus vehicle
# Method: Two μg of each nuclear extract was incubated with the −555/−512wild probe (lanes 1-3), −534/−512wild probe (lanes 4-6), or NF-Iwild probe (lanes 7-12) to detect Sp1, NF-Y, and NF-I, respectively.
# Nuclear extracts of U937 cells were prepared according to the procedure of Andrew and Faller (Andrews, N. C. and Faller, D. V. (1991) Nucleic Acids Res., 19, 2499). […] Gel shift assays were carried out as described by Orita et al. (Orita, T. et al. (1997) J. Biol. Chem., 272, 23216-23223). The reaction mixture for the gel shift assay (25 μl final volume) contained 20 mM Tris-HCl (pH 8.0), 100 mM KCl, 10% glycerol, 1 μg of poly(dl-dC), and 2 μg of nuclear extract. After preincubation for 15 minutes at 23° C., probe DNA (approximately 0.5 ng, 10,000 cpm) was added to the mixture, and the binding reaction was allowed to proceed at 23° C. for 20 min. The resulting product was then resolved by electrophoresis on 4% acrylamide-bisacrylamide (29:1), 0.5×TBE nondenaturing gel at 10 V/cm for 150 min. Competition analyses were performed by mixing the indicated amount of appropriate competitor DNA to the binding reaction prior to addition of nuclear extracts. In supershift experiments, antibodies against Sp1 (sc-59X; Santa Cruz), Sp3 (sc-644X; Santa Cruz), and C/EBP-α (sc-7204X; Santa Cruz) were purchased. The antibodies against NF-YA, -YB, and -YC (IgG fraction) were kindly provided by Drs. […]
# [4] = system: NF-YA mRNA; assay: RT-PCR of NF-YA mRNA in treated U937 cells; assay type: cell-based, human; conditions: 10^−7 M, time course, primers F1/R and F2/R
# Method: RT-PCR of NF-YA mRNA was carried out as follows. […] RT-PCR was performed using the RNA PCR Kit Ver. 2.1 (Takara, Tokyo, Japan). The forward (F) and reverse (R) primers for NF-YA-short and -long were […] (Primer F1) (SEQ ID NO: 12), […] (primer F2) (SEQ ID NO: 13), and […] (primer R) (SEQ ID NO: 14). The forward and reverse primers for G3PDH were […] (SEQ ID NO: 15) and […] (SEQ ID NO: 16). One microgram of total RNA was used for RT-PCR. PCR was performed for 25 and 20 cycles to detect NF-YA subunits and G3PDH, respectively. PCR products were subjected to electrophoresis in a 3% agarose gel. The primers for NF-YA were designed to detect two different isoforms simultaneously and were located in regions that were conserved in the two isoforms (Li, X. Y. et al. (1992) J. Biol. Chem., 267, 8984-8990).
compound,measurement,setting,value
"C=C1/C(=C\C=C2/CCC[C@]3(C)[C@@H]([C@H](C)CCCC(C)(C)O)CC[C@@H]23)C[C@@H](O)C[C@@H]1O [vitamin D3, 1,25-dihydroxyvitamin D3]",p27^Kip1 mRNA induction,[1],approximately 4 fold
same,"response to vitamin D3, one copy of the 44 bp fragment",[2],did not respond
same,"stimulatory effect, PGPV2[−555/−512mCTF]4","[2]; 40 h, 10^−7 M",abolished any stimulatory effect
same,"stimulatory effect, PGPV2[−555/−512 mSp1-1]4","[2]; 40 h, 10^−7 M",abolished any stimulatory effect
same,"response to vitamin D3, four copies of the 44 bp fragment (PGPV2[−555/−512wild]4)","[2]; 40 h, 10^−7 M, orientation-dependent",conferred significant response
same,"luciferase activity, PGPV2[−555/−512 mSp1-2]4","[2]; 40 h, 10^−7 M, similar to p27PF and PGPV2[−555/−512wild]4",activated
same,DNA binding activity of NF-I,[3],not changed
same,long form of NF-YA mRNA,[4],decreased gradually
